Measurements as given in the supplement of paper PMC10307832.

Tests used:
Assay in all cases: relative viability (nuclei count vs DMSO), 5 days (fraction); higher = more cells survive
[1] = compound: C1=CC(=CC=C1NC(=S)NNC2=C(C=C(C=C2[N+](=O)[O-])C(F)(F)F)[N+](=O)[O-])F [Kobe2602] + COc1cc2c(Oc3ccc(NC(=O)C4(C(=O)Nc5ccc(F)cc5)CC4)cc3F)ccnc2cc1OCCCN1CCOCC1 [Foretinib] (partner 0.25 µM)
Method in brief: (§1)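 Medians of duplicate plates are given as relative viability. That measure is the nuclei count in treated wells divided by the count in vehicle wells. Counts were taken on 4× images of lung cancer cell lines in 1536-well plates, 5 days after pin-tool dosing the day after seeding with one drug alone or a fixed anchor-drug dose plus five library-drug doses (not always all listed) in √10 steps.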

[2] = compound: O[C@@H](COc1cccc2ncccc12)CN1CCN([C@@H]2c3ccccc3[C@@H]3[C@H](c4ccccc42)C3(F)F)CC1 [Zosuquidar] + CC(=O)Nc1cccc(-n2c(=O)n(C3CC3)c(=O)c3c(Nc4ccc(I)cc4F)n(C)c(=O)c(C)c32)c1 [Trametinib] (partner 0.02 µM)
Method in brief: as §1

[3] = compound: COc1cc2nccc(Oc3ccc(NC(=O)C4(C(=O)Nc5ccc(F)cc5)CC4)cc3)c2cc1OC [Cabozantinib] + CC1(C)CCC(c2ccc(Cl)cc2)=C(CN2CCN(c3ccc(C(=O)NS(=O)(=O)c4ccc(N[C@H](CCN5CCOCC5)CSc5ccccc5)c(S(=O)(=O)C(F)(F)F)c4)cc3)CC2)C1 [Navitoclax] (partner 0.5 µM)
Method in brief: as §1

[4] = compound: COc1cc2nccc(Oc3ccc(NC(=O)C4(C(=O)Nc5ccc(F)cc5)CC4)cc3)c2cc1OC [Cabozantinib] + Cc1nc(NC(=O)N2CCC[C@H]2C(N)=O)sc1-c1ccnc(C(C)(C)C(F)(F)F)c1 [Alpelisib] (partner 2 µM)
Method in brief: as §1

Cell Line	relative viability ([1]; first compound 0.2 µM)	relative viability ([1]; first compound 0.6325 µM)	relative viability ([1]; first compound 2 µM)	relative viability ([1]; first compound 6.325 µM)	relative viability ([1]; first compound 20 µM)	relative viability ([2]; first compound 0.01 µM)	relative viability ([2]; first compound 0.03162 µM)	relative viability ([2]; first compound 0.1 µM)	relative viability ([2]; first compound 0.3162 µM)	relative viability ([2]; first compound 1 µM)	relative viability ([3]; first compound 0.02 µM)	relative viability ([3]; first compound 0.06325 µM)	relative viability ([3]; first compound 0.2 µM)	relative viability ([3]; first compound 0.6325 µM)	relative viability ([3]; first compound 2 µM)	relative viability ([4]; first compound 0.02 µM)	relative viability ([4]; first compound 0.06325 µM)	relative viability ([4]; first compound 0.2 µM)	relative viability ([4]; first compound 0.6325 µM)	relative viability ([4]; first compound 2 µM)
NCI-H1623	0.966	0.954	0.79	0.809	0.854															
NCI-H1648						0.479	0.454	0.465	0.469	0.408										
NCI-H1650	0.998	1.31	0.962	1.09	1.59	0.488	0.577	0.702	0.661	0.601	1.19	1.5	1.07	1.23	1.06					
NCI-H1703	0.404	0.349	0.4	0.321	0.329						0.618	0.48	0.265	0.258	0.206	0.265	0.182	0.223	0.23	0.151
NCI-H1792						0.522	0.427	0.41	0.535	0.421	0.59	0.967	0.555	0.637	0.589	0.721	0.799	0.721	0.557	0.657
NCI-H2342	1.08	1.16	0.968	0.991	1.23	0.805	0.975	0.757	0.873	0.957										
SW 900	0.979	0.926	0.821	0.854	0.993	0.666	0.715		1.05	0.988										
